One experiment addresses Cathepsin Z (Cat Z) (Mus musculus, UniProt Q9WUU7). Put plainly: competition of […]-JPM565 active-site labeling in transfected […] cell lysate. Format: biochemical.
A further experiment has as its target T1, Cathepsin F (Cat F) (Mus musculus, UniProt Q9R013).
T1 sequence (Q9R013 249-462): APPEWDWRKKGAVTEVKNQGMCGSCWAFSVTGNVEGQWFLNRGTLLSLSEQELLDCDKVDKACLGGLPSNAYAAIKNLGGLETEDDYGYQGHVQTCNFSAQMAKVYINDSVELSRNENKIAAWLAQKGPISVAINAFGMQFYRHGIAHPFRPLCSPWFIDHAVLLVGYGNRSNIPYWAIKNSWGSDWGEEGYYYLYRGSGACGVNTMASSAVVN
Type of experiment: cell-based.

Chain of Cathepsin Z (Cat Z) (Q9WUU7 64-306): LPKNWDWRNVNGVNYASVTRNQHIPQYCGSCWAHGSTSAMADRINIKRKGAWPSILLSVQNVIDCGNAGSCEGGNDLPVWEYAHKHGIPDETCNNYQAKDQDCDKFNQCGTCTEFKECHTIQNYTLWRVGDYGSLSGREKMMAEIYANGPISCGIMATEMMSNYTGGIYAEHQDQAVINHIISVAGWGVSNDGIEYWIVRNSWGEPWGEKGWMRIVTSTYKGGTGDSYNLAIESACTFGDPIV

In the case of `CC(C)C[C@H](NC(=O)[C@H]1O[C@@H]1C(=O)O)C(=O)NCCCCNC(=N)N` [E64], the “inhibits at this concentration” value at Cathepsin Z (Cat Z) is on record as 20 (inhibits at this concentration) μM. `CC(C)C[C@H](NC(=O)N1CCOCC1)C(=O)N[C@H](/C=C/S(=O)(=O)c1ccccc1)CCc1ccccc1` [LHVS]: the complete inhibition at Cathepsin F (Cat F) is 1 (complete inhibition) μM.

(Values after paper PMC2193169 (The Journal of Experimental Medicine, 2000).)
